Measured values from PMC11420244, “Evaluation of the effect of modafinil on the pharmacokinetics of encorafenib and binimetinib in patients with BRAF V600-mutant advanced solid tumors” (Cancer Chemotherapy and Pharmacology, 2024).
Entries after “also recorded” stand apart in the source; their conditions may differ. Where two headings read alike, the source gives them in different places.

Columns and labels:
[1] = Phase 1 clinical DDI study: steady-state plasma PK (noncompartmental analysis) with and without modafinil; assay type: in vivo, Human; conditions: for AUC(0-t) / half-life / Cmax: human
Protocol: Encorafenib 450 mg QD and binimetinib 45 mg BID were administered starting on Day 1. Patients then received continuous treatment of 400 mg QD modafinil on Day 15 through Day 21. Blood samples for measurement of plasma concentrations of encorafenib (and its metabolite, LHY746) and binimetinib (and its active metabolite, AR00426032), were collected at 0, 1, 2, 3, 4, 6 and 8 h post dose on Day 14 and Day 21.
Human PK plasma samples were analyzed for quantitation of all PK analytes at PPD (Middleton, Wisconsin, US) using validated, sensitive, and specific HPLC/MS/MS methods in compliance with laboratory SOPs.
PK parameters including, but not limited to, Cmax and AUClast were calculated for each participant using noncompartmental analysis (NCA) methods using the WinNonlin software package (Phoenix WinNonlin Professional, version 8.0 Pharsight Corporation, Mountain View, California) for PK analytes including encorafenib and its metabolite LHY746, and binimetinib and its metabolite AR00426032.
All patients who received at least one dose of any study drug were included in the Safety Set population. The Evaluable PK Set included all patients with sufficient concentration data to calculate at least one PK parameter for encorafenib and binimetinib on Days 14 and 21. Patients who discontinued, missed 3 or more consecutive doses of encorafenib prior to completion of the last PK sampling on Day 14, or required a dose reduction of encorafenib prior to completion of the last PK sampling on Day 14 were excluded from the Evaluable PK set. In addition, patients who missed any dose of study drugs on any of the PK days, or who vomited within 4 h after dosing on any of the PK days were excluded from Evaluable PK set.
An analysis of variance (ANOVA) was performed on the natural log (ln)-transformed Cmax and AUClast of encorafenib, LHY746, binimetinib, and AR00426032. The least squares means (LSM) geometric mean ratio (GMR) and associated 90% confidence interval (CI) for each PK parameter were calculated using the exponentiation of the difference between treatment LSM from the analyses on the ln-transformed parameters and expressed as a percentage of Day 21 relative to Day 14.

[2] = system: UGT1A1; conditions: cited from earlier work
[3] = Day 21 (with modafinil) relative to Day 14 (without)
[4] = Day 21, with modafinil 400 mg QD, steady state, plasma, patients

Cn1cnc2c(F)c(Nc3ccc(Br)cc3F)c(C(=O)NOCCO)cc21 [Binimetinib, binimetinib]
AUClast GMR (geometric mean ratio) [1, 3]: 0.957 | Cmax GMR (geometric mean ratio) [1, 3]: 1 | Cmax GMR (geometric mean ratio) ([1]; Day 21 (with modafinil) relative to Day 14 (without), listed as binimetinib): 1.00 | Cmax, Median (range) [1, 4]: 686 (424–923) ng/mL | Tmax, Median (range) [1, 4]: 1.00 (0.95–2.10) hr | Effect of steady-state modafinil on exposure/PK (in words) ([1]; Day 21 vs Day 14, modafinil 400 mg QD): similar; also recorded: no change | Time at which mean plasma concentrations typically reach peak levels, postdose ([1]; Days 14 and 21, steady state): 1 h | AUC(0-t) ([1]; plasma, oral, 400 mg, Day 21, with modafinil 400 mg QD, steady state, plasma, patients, read-out: AUClast, GM (CV%)): 2290 ng·h/mL | AUC(0-t) ([1]; plasma, oral, 400 mg, Day 21, with modafinil 400 mg QD, steady state, plasma, patients, read-out: AUClast, Median (range)): 2430 ng·h/mL | half-life ([1]; plasma, oral, 400 mg, Day 21, with modafinil 400 mg QD, steady state, plasma, patients, read-out: T1/2, GM (CV%) (converted)): 4.55 h | half-life ([1]; plasma, oral, 400 mg, Day 21, with modafinil 400 mg QD, steady state, plasma, patients, read-out: T1/2, Median (range) (converted)): 4.47 h | AUC(0-t) ([1]; plasma, oral, Day 14, without modafinil, steady state, plasma, patients, read-out: AUClast, GM (CV%)): 2400 ng·h/mL | AUC(0-t) ([1]; plasma, oral, Day 14, without modafinil, steady state, plasma, patients, read-out: AUClast, Median (range)): 2670 ng·h/mL | Cmax ([1]; plasma, oral, Day 14, without modafinil, steady state, plasma, patients, read-out: Cmax, Median (range)): 609 ng/mL | half-life ([1]; plasma, oral, Day 14, without modafinil, steady state, plasma, patients, read-out: T1/2, GM (CV%) (converted)): 4.62 h | half-life ([1]; plasma, oral, Day 14, without modafinil, steady state, plasma, patients, read-out: T1/2, Median (range) (converted)): 5.15 h | Cmax ([1]; plasma, po, Day 14, without modafinil, steady state, encorafenib 450 mg QD + binimetinib 45 mg BID oral, plasma, patients, read-out: Cmax, GM (CV%)): 660 ng/mL | Cmax ([1]; plasma, po, Day 21, with modafinil 400 mg QD Days 15-21, steady state, encorafenib 450 mg QD + binimetinib 45 mg BID oral, plasma, patients, read-out: Cmax, GM (CV%)): 663 ng/mL | Contribution of UGT1A1-mediated metabolism to metabolism [2]: up to 61%
